From US20230148214A1, “INDAZOLES AND AZAINDAZOLES AS LRRK2 INHIBITORS” (ESCAPE Bio, Inc., priority 2020, published 2023) come the findings set out here.

The IC50 is the concentration that inhibits the measured activity by half.

Test [1] addresses T1, LRRK2 WT (Homo sapiens, UniProt Q5S007).
T1 construct: purchased Life Technologies PR8604B
Nature of the test: LRRK2 Kinase Activity Assay (LanthaScreen TR-FRET), wild type. It counts as biochemical. To be noted: recombinant wild type LRRK2, 25 μM ATP, 400 nM LRRKtide, 60 min. An outline of the steps: (§1)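 IC50 fitted to the compound-dependent loss of TR-FRET signal. Each kinase form, wild type or G2019S, phosphorylated the fluorescein-tagged ERM-derived LRRKtide in the presence of ATP and compound dilutions over 60 min at room temperature; quench contained 10 mM EDTA and 2 nM anti-pERM antibody (final).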
(In TR-FRET formats the signal depends on donor and acceptor labels being close together.)

In test [2] the target is T2, LRRK2 G2019S (Homo sapiens, UniProt Q5S007, G2019S).
T2 construct: purchased Life Technologies PV4881
The experiment in a line: LRRK2 Kinase Activity Assay (LanthaScreen TR-FRET), G2019S. The format is biochemical. The settings on record: recombinant G2019S-LRRK2, 25 μM ATP, 400 nM LRRKtide, 60 min; class symbols. The essentials: as §1

T2 sequence (Q5S007 whole entry G2019S): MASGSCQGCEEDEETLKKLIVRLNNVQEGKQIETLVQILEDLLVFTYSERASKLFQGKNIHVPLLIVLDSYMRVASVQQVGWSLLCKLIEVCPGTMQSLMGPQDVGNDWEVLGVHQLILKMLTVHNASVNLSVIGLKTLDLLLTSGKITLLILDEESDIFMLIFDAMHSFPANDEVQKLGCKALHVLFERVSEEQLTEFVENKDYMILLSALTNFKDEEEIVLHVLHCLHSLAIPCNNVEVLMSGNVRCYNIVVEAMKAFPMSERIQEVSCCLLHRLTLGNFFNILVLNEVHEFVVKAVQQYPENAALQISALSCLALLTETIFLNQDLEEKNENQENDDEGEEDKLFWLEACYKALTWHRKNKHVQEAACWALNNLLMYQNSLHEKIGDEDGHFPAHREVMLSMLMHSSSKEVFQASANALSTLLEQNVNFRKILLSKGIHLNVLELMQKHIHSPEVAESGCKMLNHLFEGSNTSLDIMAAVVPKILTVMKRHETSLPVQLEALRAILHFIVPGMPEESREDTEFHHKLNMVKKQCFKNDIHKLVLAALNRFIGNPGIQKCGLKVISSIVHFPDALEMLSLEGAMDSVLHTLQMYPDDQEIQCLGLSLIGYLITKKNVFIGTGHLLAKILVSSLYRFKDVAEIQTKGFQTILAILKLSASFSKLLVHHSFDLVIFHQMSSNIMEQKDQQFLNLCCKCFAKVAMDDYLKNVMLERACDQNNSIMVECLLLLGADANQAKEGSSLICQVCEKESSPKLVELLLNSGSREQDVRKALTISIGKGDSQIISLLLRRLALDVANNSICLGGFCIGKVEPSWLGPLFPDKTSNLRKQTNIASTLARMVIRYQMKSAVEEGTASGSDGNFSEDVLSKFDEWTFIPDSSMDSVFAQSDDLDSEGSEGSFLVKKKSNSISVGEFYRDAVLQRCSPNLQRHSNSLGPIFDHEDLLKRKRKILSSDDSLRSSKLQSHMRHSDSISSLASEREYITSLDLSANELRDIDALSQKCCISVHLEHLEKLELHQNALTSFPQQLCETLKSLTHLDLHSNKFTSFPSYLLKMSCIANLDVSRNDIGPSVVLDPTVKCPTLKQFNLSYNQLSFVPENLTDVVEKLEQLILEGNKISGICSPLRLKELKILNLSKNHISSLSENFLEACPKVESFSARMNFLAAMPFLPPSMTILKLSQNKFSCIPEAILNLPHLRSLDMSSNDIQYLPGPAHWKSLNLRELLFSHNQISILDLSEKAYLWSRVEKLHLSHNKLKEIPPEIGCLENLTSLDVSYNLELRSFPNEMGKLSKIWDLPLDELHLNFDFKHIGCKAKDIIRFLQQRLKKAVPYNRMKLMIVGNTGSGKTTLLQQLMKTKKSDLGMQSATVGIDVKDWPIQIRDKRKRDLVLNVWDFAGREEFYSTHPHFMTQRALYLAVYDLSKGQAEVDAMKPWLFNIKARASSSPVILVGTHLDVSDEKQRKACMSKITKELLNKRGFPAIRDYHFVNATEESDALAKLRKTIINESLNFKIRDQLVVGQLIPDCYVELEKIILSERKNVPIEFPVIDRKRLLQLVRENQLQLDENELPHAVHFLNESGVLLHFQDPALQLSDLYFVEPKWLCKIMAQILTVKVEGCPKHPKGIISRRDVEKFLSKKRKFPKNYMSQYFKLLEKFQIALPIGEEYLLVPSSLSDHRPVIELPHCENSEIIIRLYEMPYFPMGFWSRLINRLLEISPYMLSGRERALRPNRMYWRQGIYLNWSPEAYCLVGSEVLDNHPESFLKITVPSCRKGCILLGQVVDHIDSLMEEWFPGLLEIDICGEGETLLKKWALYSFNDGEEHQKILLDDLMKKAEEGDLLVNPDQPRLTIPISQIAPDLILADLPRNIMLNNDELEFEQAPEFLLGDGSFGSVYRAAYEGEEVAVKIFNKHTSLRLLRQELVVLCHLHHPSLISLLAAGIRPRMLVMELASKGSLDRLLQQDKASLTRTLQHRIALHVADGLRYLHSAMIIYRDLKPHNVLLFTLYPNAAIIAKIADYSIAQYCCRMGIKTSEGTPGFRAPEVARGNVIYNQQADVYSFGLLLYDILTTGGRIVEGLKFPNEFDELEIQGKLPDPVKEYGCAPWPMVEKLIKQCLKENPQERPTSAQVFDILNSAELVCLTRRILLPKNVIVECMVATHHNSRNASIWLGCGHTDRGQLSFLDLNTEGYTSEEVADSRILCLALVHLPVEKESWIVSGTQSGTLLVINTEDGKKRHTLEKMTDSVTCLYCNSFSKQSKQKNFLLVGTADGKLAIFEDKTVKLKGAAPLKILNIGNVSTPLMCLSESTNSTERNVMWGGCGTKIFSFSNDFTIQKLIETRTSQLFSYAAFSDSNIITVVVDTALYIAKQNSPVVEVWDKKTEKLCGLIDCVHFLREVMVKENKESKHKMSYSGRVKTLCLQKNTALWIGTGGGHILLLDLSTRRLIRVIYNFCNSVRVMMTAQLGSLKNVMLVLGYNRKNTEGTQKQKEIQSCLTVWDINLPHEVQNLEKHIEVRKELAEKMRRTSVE
T1 sequence (Q5S007 whole entry): as the sequence (Q5S007 whole entry G2019S) above, with S2019G counted along it

In the case of `N#Cc1ccc2c(c1F)CC[C@H]2Nc1ccc2[nH]nc(-c3cnn(C(F)F)c3)c2c1` (single isomer, unassigned) [Example 53, enantiomer 2, 1-((3-(1-(Difluoromethyl)-1H-pyrazol-4-yl)-1H-indazol-5-yl)amino)-4-fluoro-2,3-dihydro-1H-indene-5-carbonitrile], the half-maximal inhibitory concentration (IC50) in test [1] (class symbols) is 100 to 1000 nM; in test [2] it was under 100 nM.
As to `N#Cc1ccc2c(c1)CCC[C@@H]2Nc1ccc2[nH]nc(C3=CCCCC3)c2c1` (single isomer, unassigned) [Example 54, 5-((3-(Cyclohex-1-en-1-yl)-1H-indazol-5-yl)amino)-5,6,7,8-tetrahydronaphthalene-2-carbonitrile], the figures for the IC50 in test [1] (class symbols) and in test [2] were 1000 to 10000 nM and 100 to 1000 nM, respectively.
Taken in the same sequence, the figures for `N#Cc1ccc2c(c1)CCC[C@@H]2Nc1ccc2[nH]nc(-c3ccc(C(=O)O)cc3)c2c1` (single isomer, unassigned) [Example 55, 4-(5-((6-Cyano-1,2,3,4-tetrahydronaphthalen-1-yl)amino)-1H-indazol-3-yl)benzoic acid] were under 100 nM and under 100 nM.
Taken in the same sequence, the figures for `Cn1cc2ccc(-c3n[nH]c4ccc(N[C@H]5CCCc6cc(C#N)ccc65)cc34)cc2n1` (single isomer, unassigned) [Example 56, 5-((2′-Methyl-1H,2′H-[3,6′-biindazol]-5-yl)amino)-5,6,7,8-tetrahydronaphthalene-2-carbonitrile] were 1000 to 10000 nM and 100 to 1000 nM.
Taken in the same sequence, the figures for `CS(=O)(=O)c1cccc(-c2n[nH]c3ccc(N[C@H]4CCCc5cc(C#N)ccc54)cc23)c1` (single isomer, unassigned) [Example 57, 5-((3-(3-(Methylsulfonyl)phenyl)-1H-indazol-5-yl)amino)-5,6,7,8-tetrahydronaphthalene-2-carbonitrile] were under 100 nM and under 100 nM.
`COc1cc(OC)cc(-c2n[nH]c3ccc(N[C@H]4CCCc5cc(C#N)ccc54)cc23)c1` (single isomer, unassigned) [Example 58, 5-((3-(3,5-Dimethoxyphenyl)-1H-indazol-5-yl)amino)-5,6,7,8-tetrahydronaphthalene-2-carbonitrile]: the IC50 in test [1] (class symbols) was 100 to 1000 nM; in test [2], under 100 nM.
Taken in the same sequence, the figures for `Cc1ncc(-c2n[nH]c3ccc(N[C@H]4CCCc5cc(C#N)ccc54)cc23)o1` (single isomer, unassigned) [Example 60, 5-((3-(2-Methyloxazol-5-yl)-1H-indazol-5-yl)amino)-5,6,7,8-tetrahydronaphthalene-2-carbonitrile] were under 100 nM and under 100 nM.
`N#Cc1ccc2c(c1)CCC[C@@H]2Nc1ccc2[nH]nc(-c3ccc4cc[nH]c4c3)c2c1` (single isomer, unassigned) [Example 61, 5-((3-(1H-Indol-6-yl)-1H-indazol-5-yl)amino)-5,6,7,8-tetrahydronaphthalene-2-carbonitrile]: the IC50 is 100 to 1000 nM in test [1] (class symbols) and under 100 nM in test [2].
For the compound `Cn1cc(-c2n[nH]c3ccc(N[C@H]4CCCc5cc(C#N)ccc54)cc23)ccc1=O` (single isomer, unassigned) [Example 62, 5-((3-(1-Methyl-6-oxo-1,6-dihydropyridin-3-yl)-1H-indazol-5-yl)amino)-5,6,7,8-tetrahydronaphthalene-2-carbonitrile], the IC50 in test [1] (class symbols) and in test [2] was under 100 nM throughout.
As to `N#Cc1ccc(-c2n[nH]c3ccc(N[C@H]4CCCc5cc(C#N)ccc54)cc23)cc1` (single isomer, unassigned) [Example 63, 5-((3-(4-Cyanophenyl)-1H-indazol-5-yl)amino)-5,6,7,8-tetrahydronaphthalene-2-carbonitrile], the IC50 in test [1] (class symbols) was 100 to 1000 nM; in test [2], under 100 nM.
Taken in the same sequence, the figures for `N#Cc1ccc2c(c1)CCC[C@@H]2Nc1ccc2[nH]nc(C3=CCCC3)c2c1` (single isomer, unassigned) [Example 65, 5-((3-(Cyclopent-1-en-1-yl)-1H-indazol-5-yl)amino)-5,6,7,8-tetrahydronaphthalene-2-carbonitrile] were 1000 to 10000 nM and 100 to 1000 nM.
Taken in the same sequence, the figures for `N#Cc1ccc2c(c1)CCC[C@@H]2Nc1ccc2[nH]nc(-c3ccc(F)c(C(=O)O)c3)c2c1` (single isomer, unassigned) [Example 66, 5-(5-((6-Cyano-1,2,3,4-tetrahydronaphthalen-1-yl)amino)-1H-indazol-3-yl)-2-fluorobenzoic acid] were 100 to 1000 nM and under 100 nM.
Taken in the same sequence, the figures for `N#Cc1ccc2c(c1)CCC[C@@H]2Nc1ccc2[nH]nc(-c3ccc4scnc4c3)c2c1` (single isomer, unassigned) [Example 67, 5-((3-(Benzo[d]thiazol-5-yl)-1H-indazol-5-yl)amino)-5,6,7,8-tetrahydronaphthalene-2-carbonitrile] were under 100 nM and under 100 nM.
In the case of `N#Cc1ccc2c(c1)CCC[C@@H]2Nc1ccc2[nH]nc(-c3cccc(C(F)F)c3)c2c1` (single isomer, unassigned) [Example 68, 5-((3-(3-(Difluoromethyl)phenyl)-1H-indazol-5-yl)amino)-5,6,7,8-tetrahydronaphthalene-2-carbonitrile], the IC50 in test [1] (class symbols) and in test [2] was under 100 nM in each case.
As to `CONC(=O)c1cccc(-c2n[nH]c3ccc(N[C@H]4CCCc5cc(C#N)ccc54)cc23)c1` (single isomer, unassigned) [Example 69, 3-(5-((6-Cyano-1,2,3,4-tetrahydronaphthalen-1-yl)amino)-1H-indazol-3-yl)-N-methoxybenzamide], the concentration for half-maximal inhibition (IC50) in test [1] (class symbols) and in test [2] was under 100 nM each time.
For the compound `N#Cc1ccc2c(c1)CCC[C@@H]2Nc1ccc2[nH]nc(-c3ccc([N+](=O)[O-])cc3)c2c1` (single isomer, unassigned) [Example 70, 5-((3-(4-Nitrophenyl)-1H-indazol-5-yl)amino)-5,6,7,8-tetrahydronaphthalene-2-carbonitrile], the IC50 was 100 to 1000 nM in test [1] (class symbols) and under 100 nM in test [2].
Turning to `COc1ccc(-c2n[nH]c3ccc(N[C@H]4CCCc5cc(C#N)ccc54)cc23)cc1OC` (single isomer, unassigned) [Example 71, 5-((3-(3,4-Dimethoxyphenyl)-1H-indazol-5-yl)amino)-5,6,7,8-tetrahydronaphthalene-2-carbonitrile], the half-inhibitory concentration (IC50) in test [1] (class symbols) and in test [2] was under 100 nM throughout.
With `N#Cc1ccc2c(c1)CCC[C@@H]2Nc1ccc2[nH]nc(-c3ccc(N4CCOCC4)cc3)c2c1` (single isomer, unassigned) [Example 72, 5-((3-(4-Morpholinophenyl)-1H-indazol-5-yl)amino)-5,6,7,8-tetrahydronaphthalene-2-carbonitrile], the half-maximal inhibitory concentration (IC50) in test [1] (class symbols) and in test [2] was under 100 nM throughout.
Take `COc1ccc(-c2n[nH]c3ccc(N[C@H]4CCCc5cc(C#N)ccc54)cc23)cc1C` (single isomer, unassigned) [Example 73, 5-((3-(4-Methoxy-3-methylphenyl)-1H-indazol-5-yl)amino)-5,6,7,8-tetrahydronaphthalene-2-carbonitrile]: the 50% inhibitory concentration (IC50) was 100 to 1000 nM in test [1] (class symbols) and under 100 nM in test [2].
Taken in the same sequence, the figures for `CS(=O)(=O)c1ccc(-c2n[nH]c3ccc(N[C@H]4CCCc5cc(C#N)ccc54)cc23)cc1` (single isomer, unassigned) [Example 74, 5-((3-(4-(Methylsulfonyl)phenyl)-1H-indazol-5-yl)amino)-5,6,7,8-tetrahydronaphthalene-2-carbonitrile] were under 100 nM and under 100 nM.
Taken in the same sequence, the figures for `C/C=C/c1n[nH]c2ccc(N[C@H]3CCCc4cc(C#N)ccc43)cc12` (single isomer, unassigned) [Example 75, (E)-5-((3-(Prop-1-en-1-yl)-1H-indazol-5-yl)amino)-5,6,7,8-tetrahydronaphthalene-2-carbonitrile] were 100 to 1000 nM and under 100 nM.
Taken in the same sequence, the figures for `N#Cc1ccc2c(c1)CCC[C@@H]2Nc1ccc2[nH]nc(-c3cncc(C4CC4)c3)c2c1` (single isomer, unassigned) [Example 76, 5-((3-(5-Cyclopropylpyridin-3-yl)-1H-indazol-5-yl)amino)-5,6,7,8-tetrahydronaphthalene-2-carbonitrile] were under 100 nM and under 100 nM.
With `N#Cc1ccc2c(c1)CCC[C@@H]2Nc1ccc2[nH]nc(-c3ccc4c(c3)OCO4)c2c1` (single isomer, unassigned) [Example 77, 5-((3-(Benzo[d][1,3]dioxol-5-yl)-1H-indazol-5-yl)amino)-5,6,7,8-tetrahydronaphthalene-2-carbonitrile], the half-inhibitory concentration (IC50) in test [1] (class symbols) and in test [2] was under 100 nM in each case.
As for `N#Cc1ccc2c(c1)CCC[C@@H]2Nc1ccc2[nH]nc(-c3ccc4[nH]ccc4c3)c2c1` (single isomer, unassigned) [Example 78, 5-((3-(1H-Indol-5-yl)-1H-indazol-5-yl)amino)-5,6,7,8-tetrahydronaphthalene-2-carbonitrile], the figures for the concentration for half-maximal inhibition (IC50) in test [1] (class symbols) and in test [2] were 100 to 1000 nM and under 100 nM, respectively.
As for `N#Cc1ccc2c(c1)CCC[C@@H]2Nc1ccc2[nH]nc(-c3ccc[nH]3)c2c1` (single isomer, unassigned) [Example 79, 5-((3-(1H-Pyrrol-2-yl)-1H-indazol-5-yl)amino)-5,6,7,8-tetrahydronaphthalene-2-carbonitrile], the values for the concentration for half-maximal inhibition (IC50) in test [1] (class symbols) and in test [2] were 100 to 1000 nM and under 100 nM, respectively.
On to `CC(C)(C)OC(=O)n1cccc1-c1n[nH]c2ccc(N[C@H]3CCCc4cc(C#N)ccc43)cc12` (single isomer, unassigned) [Example 80, tert-Butyl 2-(5-((6-cyano-1,2,3,4-tetrahydronaphthalen-1-yl)amino)-1H-indazol-3-yl)-1H-pyrrole-1-carboxylate], for which the IC50 is over 10000 nM in test [1] (numeric bound) and 100 to 1000 nM in test [2].
